In patent publication US4118506A, “Pharmaceutical compositions containing 1,3-dithiol-2-ylidene malonate derivatives” (Nihon Nohyaku Co., Ltd., priority 1976, dated 1978):

Tests used:
[1] = test system: acute liver damage induced by bromobenzene; assay: protective effect on acute liver damage associated with centrilobular necrosis, bromobenzene model; format: in vivo, rat (SD)
Procedure: Bromobenzene (hereinafter abbreviated as BB), Dimethylnitrosamine (hereinafter abbreviated as DMN) and chloroform (hereinafter abbreviated as CF) resemble carbon tetrachloride in inducing liver damage associated with centrilobular necrosis.
Test compound or anethol trithion was orally administered to animal at the dose of 100 mg/kg. Twenty four hours after it (in the case of dimethylnitrosamine, exceptionally fifteen hours after it) the animals were sacrificed and blood samples were collected. Indices of hepatotoxicity adoptable in each chemical were measured, from which the efficacy of the compound was evaluated.
BB male rat 0.75 oral p-GPT activity

[2] = test system: chronic liver damage induced by thioacetamide; assay: therapeutic effect on chronic liver damage, thioacetamide model (BSP test); format: in vivo, rat (Sprague Dawley); details: Group B, diet + 0.2% compound
Procedure: In the tests of this Example, TAA was repeatedly administered to animals to prepare test animals suffering from somewhat chronic liver damages, and then the present compounds were administered thereto to know whether or not the compounds were effective against chronic hepatitis.
The degree of the liver damage and the therapeutic effects of the compounds were evaluated according to BSP test. The BSP test is a method in which BSP (sulfobromophthalein sodium), a dye known to be quickly metabolized in and excreted from the liver, is intravenously injected into animals and, after a definite period of time, the blood is taken out to measure the amount of BSP remaining in the plasma. In case the animals are suffering from the liver damage, the dye will remain, according to the degree of the damage, at the stage where a major portion of BSP is metabolized and excreted in the case of normal animals.
Five groups of rats (Sprague Dawley strain) were treated as follows:
Group A: The rats were orally administered with 100 mg/kg of thioacetamide,at 3 days intervals for 36 days (12 times of the administration), then were submitted for 10 days to a normal diet.
Group B: The rats were orally administered with 100 mg/kg of thioacetamide at 3 days intervals for 36 days (12 times of the administration), then were submitted for 10 days to the normal diet + 0.2% of compound 4.
Group C: The rats were submitted to the normal diet as the control.
Five rats were sacrificed from each group at appropriate intervals for BSP (sulfobromophthalein sodium) test, the results of which were shown as amounts (mg) of BSP remaining in ldl of plasma.

[3] = test system: cirrhosis induced by carbon tetrachloride; assay: therapeutic effect on cirrhosis, carbon tetrachloride; format: in vivo, rat (SD-strain); details: therapeutic group, diet 2000 ppm
Source text: Almost all the liver diseases induced by various causes are considered to advance, finally, to cirrhosis. Cirrhosis is a final stage of liver damage, which is difficult to classify from the causal viewpoint. Usually, experimental cirrhosis is induced by long-term repeated administration of carbon tetrachloride. The therapeutic effect of the compounds of this invention on cirrhosis, which had been caused by carbon tetrachloride administration, was examined.
A 10% solution of carbon tetrachloride in olive oil was administered to the male rat (4 week-old SD-strain) intraperitoneally at the dose of 0.5 ml carbon tetrachloride/kg twice a week over a period of 10 weeks, to induce cirrhosis. Four days after the final administration of carbon tetrachloride, the formation of pseudo-lobulus was confirmed. Then the diseased animals were divided into two groups. Therapeutic group was submitted a diet containing 2000 ppm of Compound 4, while the positive control group was submitted a normal diet. Control group, to which olive oil alone had been administered, was submitted a normal diet.
At 1, 2, 4 and 8 weeks after beginning of Compound 4 feeding, 5 animals from each group were sacrificed, and the therapeutic effect on cirrhosis was evaluated by examining plasma transaminase activity (p-GPT and p-GOT, Reitman-Frankel method) and observing histopathological changes.
Degree of cirrhosis in the histopathological examination was graded as follows: […]

[4] = test system: liver injury and chronic hepatitis; assay: clinical test on liver injury and chronic hepatitis; format: in vivo, human; details: for p-GOT activity / p-GPT activity: tablets of Example 6, 12 a day
Procedure: Six patients were used for the test. One was diagnosed as liver injury caused by administration of PAS (p-aminosalicyclic acid) for three months and five were diagnosed as chronic hepatitis by doctor.
The tablets obtained in Example 6 were orally administered to the respective patients at the dose of twelve tablets a day (four tablets after every meal).
Curing effects on the liver injury and chronic hepatitis after administration were evaluated by measuring plasma transaminase activity (p-GPT and p-GOT).

[5] = bromobenzene 0.75 ml/kg oral, 100 mg/kg oral 6 h before, 24 h after
[6] = patient 1, liver injury (PAS), person, before administration
[7] = patient 2, chronic hepatitis, before administration
[8] = patient 3, chronic hepatitis, before administration
[9] = patient 4, chronic hepatitis, before administration
[10] = patient 5, chronic hepatitis, before administration
[11] = patient 6, chronic hepatitis, before administration

## CC(C)OC(=O)C(C(=O)OC(C)C)=C1SC=CS1 [Compound 4, diisopropyl 1,3-dithiol-2-ylidene malonate]
[1]; BB, DMN and CF models together, Table 4
  indices of hepatotoxicity: normalized the indices of hepatotoxicity
[1]; [5]
  BSP: 10.6 ± 4.5 mg/dL
  p-GPT: 23 ± 3.7 Karmen unit
[2]; 2 days after compound administration
  BSP remaining in plasma: 7.2 ± 2.5 mg/dL
[2]; 5 days after compound administration
  BSP remaining in plasma: 2.8 ± 0.7 mg/dL
[2]; 10 days after compound administration
  BSP remaining in plasma: 0.5 ± 0.1 mg/dL
[3]; 1 week
  p-GOT activity: 562 ± 119 Karmen unit
  p-GPT activity: 169 ± 30 Karmen unit
[3]; 2 weeks
  p-GOT activity: 182 ± 43 Karmen unit
  p-GPT activity: 43 ± 11 Karmen unit
[3]; 4 weeks
  p-GOT activity: 142 ± 48 Karmen unit
  p-GPT activity: 45 ± 23 Karmen unit
[3]; 8 weeks
  p-GOT activity: 120 ± 32 Karmen unit
  p-GPT activity: 33 ± 20 Karmen unit
[4]; in words
  plasma transaminase activity (p-GPT and p-GOT): useful for normalizing plasma transaminase activity
[4]; patient 1, after 3 days
  p-GOT activity: 270 Karmen Unit
  p-GPT activity: 215 Karmen Unit
[4]; patient 1, after 4 days
  p-GOT activity: 231 Karmen Unit
  p-GPT activity: 169 Karmen Unit
[4]; patient 1, after 7 days
  p-GOT activity: 81 Karmen Unit
  p-GPT activity: 94 Karmen Unit
[4]; patient 1, after 12 days
  p-GOT activity: 36 Karmen Unit
  p-GPT activity: 41 Karmen Unit
[4]; patient 1, after 15 days
  p-GOT activity: 37 Karmen Unit
  p-GPT activity: 24 Karmen Unit
[4]; patient 1, after 19 days
  p-GOT activity: 24 Karmen Unit
  p-GPT activity: 21 Karmen Unit
[4]; [6]
  p-GOT activity: 270 Karmen Unit
  p-GPT activity: 270 Karmen Unit
[4]; patient 2, after 14 days
  p-GOT activity: 68 Karmen Unit
  p-GPT activity: 62 Karmen Unit
[4]; patient 2, after 35 days
  p-GOT activity: 24 Karmen Unit
  p-GPT activity: 43 Karmen Unit
[4]; [7]
  p-GOT activity: 270 Karmen Unit
  p-GPT activity: 270 Karmen Unit
[4]; patient 3, after 14 days
  p-GOT activity: 100 Karmen Unit
  p-GPT activity: 96 Karmen Unit
[4]; patient 3, after 56 days
  p-GOT activity: 77 Karmen Unit
  p-GPT activity: 87 Karmen Unit
[4]; [8]
  p-GOT activity: 145 Karmen Unit
  p-GPT activity: 163 Karmen Unit
[4]; patient 4, after 2 days
  p-GOT activity: 60 Karmen Unit
  p-GPT activity: 113 Karmen Unit
[4]; patient 4, after 9 days
  p-GOT activity: 68 Karmen Unit
  p-GPT activity: 94 Karmen Unit
[4]; patient 4, after 16 days
  p-GOT activity: 49 Karmen Unit
  p-GPT activity: 62 Karmen Unit
[4]; patient 4, after 62 days
  p-GOT activity: 33 Karmen Unit
  p-GPT activity: 33 Karmen Unit
[4]; [9]
  p-GOT activity: 80 Karmen Unit
  p-GPT activity: 185 Karmen Unit
[4]; patient 5, after 8 days
  p-GOT activity: 78 Karmen Unit
  p-GPT activity: 119 Karmen Unit
[4]; patient 5, after 28 days
  p-GOT activity: 65 Karmen Unit
  p-GPT activity: 79 Karmen Unit
[4]; patient 5, after 30 days
  p-GOT activity: 57 Karmen Unit
  p-GPT activity: 57 Karmen Unit
[4]; [10]
  p-GOT activity: 95 Karmen Unit
  p-GPT activity: 94 Karmen Unit
[4]; patient 6, after 14 days
  p-GOT activity: 108 Karmen Unit
  p-GPT activity: 306 Karmen Unit
[4]; patient 6, after 23 days
  p-GOT activity: 48 Karmen Unit
  p-GPT activity: 121 Karmen Unit
[4]; patient 6, after 36 days
  p-GOT activity: 33 Karmen Unit
  p-GPT activity: 65 Karmen Unit
[4]; patient 6, after 56 days
  p-GOT activity: 24 Karmen Unit
  p-GPT activity: 53 Karmen Unit
[4]; patient 6, after 82 days
  p-GOT activity: 24 Karmen Unit
  p-GPT activity: 39 Karmen Unit
[4]; [11]
  p-GOT activity: 83 Karmen Unit
  p-GPT activity: 354 Karmen Unit
